# In PubChem BioAssay AID1963979 (Molecular Pharmacology Branch, DTP, NCI, 2024):
# System: 361931-004-R-J1-PDC multicell spheroid viability
# Test: Anticancer human tumor 361931-004-R-J1-PDC patient-derived colon adenocarcinoma cell line growth inhibition [PI3K]
# Conditions: for IC50: curve of first compound; for viability, T/C: stronger effect = lower value
# Source text: Combinatorial screen of targeted agents with the PI3K inhibitors inavolisib, alpelisib, duvelisib, and copanlisib in multi-cell type tumor spheroids
# A high-throughput screen of multi-cell type tumor spheroids was designed to identify active combinations of targeted small molecules and PI3K pathway inhibitors. Complex spheroids include a stromal component modeled by human endothelial cells (HUVEC) and fibroblasts modeled by human mesenchymal stem cells (MSCs). The concentration ranges selected for each drug and investigational agent were based upon clinically achievable concentrations if the clinical Cmax of the agent was known.
# Compounds. The drugs and investigational agents: inavolisib (NSC800729), alpelisib (NSC765974), duvelisib (NSC772469), copanlisib (NSC816437), ipatasertib (NSC767898), afuresertib (NSC778305), talazoparib (NSC767125), sapanisertib (NSC764658), selumetinib (NSC741078), tovorafenib (DAY101, NSC766906), vemurafenib (NSC761431), ravoxertinib (NSC781343), sotorasib (NSC818433), MRTX1133 (NSC 836407), abemaciclib (NSC 768073), palbociclib (NSC758247), venetoclax (NSC 766270), SY5609 (NSC837396), enzalutamide (NSC755605), and darolutamide (NSC825331), were obtained from the National Cancer Institute (NCI) Developmental Therapeutics Program Chemical Repository. The FDA-approved anticancer drug set is available from the NCI Developmental Therapeutics Program. […] The stock solutions were prepared in dimethyl sulfoxide (DMSO, Sigma-Aldrich, St. Louis, MO, cat. D2650) at 800-fold the tested concentration and stored at -70 degrees C prior to their use. All drugs and investigational agents were tested over a range starting from a high concentration at or near the clinical Cmax and decreasing in half-log increments. If the clinical Cmax for an agent had not been determined, the highest concentration tested was 10 microM.
# Cell Culture. All cells were maintained in an incubator at 37 degrees C and 5% CO2 with 95% humidity. The PDC lines were cultured according to standard operating procedures established by the NCI PDMR (https://pdmr.cancer.gov/sops/default.htm). All PDCs were thawed and cultured in Matrigel-coated flasks prepared with a working solution of 1X Ham's F-12 nutrient mix, without supplementation (Invitrogen, Waltham, MA, cat. 11765054), 100 U/mL penicillin-streptomycin (Invitrogen, cat. 15140122), and 2.5% Matrigel (Corning Inc., Corning, NY, cat. 354248) for the first three passages. The 354836-022-R-J1-PDC, 475296-252-R-J1-PDC, and 997726-040-R-J2-PDC lines were cultured in 6A media, which includes advanced DMEM/F-12 (Thermo Fisher Scientific, cat. 12634028), 10 mM HEPES (Thermo Fisher Scientific, cat. 15630080), 1X GlutaMAX supplement (Thermo Fisher Scientific, cat. 35050061), 0.1 mg/mL primocin (InvivoGen, San Diego, CA, cat. ant-pm-2), 10% defined fetal bovine serum, heat inactivated (HyClone Laboratories Inc., Logan, UT, cat. SH30070.03HI), 50% L-WRN conditioned media (ATCC, cat. CRL-3276), 1.25 mM N-Acetyl-L-cysteine (Sigma-Aldrich, cat. A9165), 10 mM nicotinamide (Sigma-Aldrich, cat. N0636), 1X B-27 supplement (Thermo Fisher Scientific, cat. 17504044), 1X N-2 supplement (Thermo Fisher Scientific, cat. 17502048), and 10 microM Y-27632 dihydrochloride (Tocris Bioscience, Bristol, United Kingdom, cat. 1254). The 624824-186-R-J2-PDC line was cultured in 6C/Colon 1B media, which includes all 6A media components plus 50 ng/mL human EGF recombinant protein (Thermo Fisher Scientific, cat. PHG0311). […]
# [1] = second compound 0.0316 µM, first compound 0.0316 µM
# [2] = second compound 0.0316 µM, first compound 0.1 µM
# [3] = second compound 0.0316 µM, first compound 0.316 µM
# [4] = second compound 0.0316 µM, first compound 1 µM
# [5] = second compound 0.0316 µM, first compound 3.16 µM
# [6] = second compound 0.0316 µM, first compound 10 µM
# [7] = second compound 0.1 µM, first compound 0.0316 µM
# [8] = second compound 0.1 µM, first compound 0.1 µM
# [9] = second compound 0.1 µM, first compound 0.316 µM
# [10] = second compound 0.1 µM, first compound 1 µM
# [11] = second compound 0.1 µM, first compound 3.16 µM
# [12] = second compound 0.1 µM, first compound 10 µM
# [13] = second compound 0.316 µM, first compound 0.0316 µM
# [14] = second compound 0.316 µM, first compound 0.1 µM
# [15] = second compound 0.316 µM, first compound 0.316 µM
# [16] = second compound 0.316 µM, first compound 1 µM
# [17] = second compound 0.316 µM, first compound 3.16 µM
# [18] = second compound 0.316 µM, first compound 10 µM
# [19] = second compound 1 µM, first compound 0.0316 µM
# [20] = second compound 1 µM, first compound 0.1 µM
# [21] = second compound 1 µM, first compound 0.316 µM
# [22] = second compound 1 µM, first compound 1 µM
# [23] = second compound 1 µM, first compound 3.16 µM
# [24] = second compound 1 µM, first compound 10 µM
# 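Note: spheroids exposed to agents for seven days before readout.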
structure (smiles),measurement,setting,value
CCCS(=O)(=O)Nc1ccc(F)c(C(=O)c2c[nH]c3ncc(-c4ccc(Cl)cc4)cc23)c1F + COc1c(OCCCN2CCOCC2)ccc2c3n(c(=NC(=O)c4cnc(N)nc4)nc12)CCN3,IC50,second compound 0.00316 µM,4.62 µM
same,IC50,second compound 0.01 µM,4.73 µM
same,IC50,second compound 0.0316 µM,4.48 µM
same,IC50,second compound 0.1 µM,1.57 µM
same,IC50,second compound 0.316 µM,0.0487 µM
same,IC50,second compound 1 µM,< 0.0316 µM
same,"viability, T/C","second compound 0.00316 µM, first compound 0.0316 µM",102%
same,"viability, T/C","second compound 0.00316 µM, first compound 0.1 µM",104%
same,"viability, T/C","second compound 0.00316 µM, first compound 0.316 µM",93.7%
same,"viability, T/C","second compound 0.00316 µM, first compound 1 µM",89.8%
same,"viability, T/C","second compound 0.00316 µM, first compound 3.16 µM",72.3%
same,"viability, T/C","second compound 0.00316 µM, first compound 10 µM",7.97%
same,"viability, T/C","second compound 0.01 µM, first compound 0.0316 µM",107%
same,"viability, T/C","second compound 0.01 µM, first compound 0.1 µM",93.1%
same,"viability, T/C","second compound 0.01 µM, first compound 0.316 µM",94%
same,"viability, T/C","second compound 0.01 µM, first compound 1 µM",88.1%
same,"viability, T/C","second compound 0.01 µM, first compound 3.16 µM",75.6%
same,"viability, T/C","second compound 0.01 µM, first compound 10 µM",6.49%
same,"viability, T/C",[1],93%
same,"viability, T/C",[2],87.3%
same,"viability, T/C",[3],77.5%
same,"viability, T/C",[4],83.3%
same,"viability, T/C",[5],69.4%
same,"viability, T/C",[6],6.55%
same,"viability, T/C",[7],89.1%
same,"viability, T/C",[8],72.5%
same,"viability, T/C",[9],67.4%
same,"viability, T/C",[10],53%
same,"viability, T/C",[11],47.6%
same,"viability, T/C",[12],5.33%
same,"viability, T/C",[13],54.1%
same,"viability, T/C",[14],45.5%
same,"viability, T/C",[15],28.9%
same,"viability, T/C",[16],27.4%
same,"viability, T/C",[17],17.8%
same,"viability, T/C",[18],3.29%
same,"viability, T/C",[19],20.6%
same,"viability, T/C",[20],21.3%
same,"viability, T/C",[21],14%
same,"viability, T/C",[22],9.73%
same,"viability, T/C",[23],7.59%
same,"viability, T/C",[24],2.7%
C=CC(=O)N1CCN(c2nc(=O)n(-c3c(C)ccnc3C(C)C)c3nc(-c4c(O)cccc4F)c(F)cc23)C(C)C1 (centres undefined) + Cc1nc(NC(=O)N2CCCC2C(N)=O)sc1-c1ccnc(C(C)(C)C(F)(F)F)c1,IC50,second compound 0.0316 µM,> 10 µM
same,IC50,second compound 0.1 µM,> 10 µM
same,IC50,second compound 0.316 µM,> 10 µM
same,IC50,second compound 1 µM,> 10 µM
same,IC50,second compound 3.16 µM,> 10 µM
same,IC50,second compound 10 µM,> 10 µM
same,"viability, T/C",[1],91%
same,"viability, T/C",[2],102%
same,"viability, T/C",[3],87.7%
same,"viability, T/C",[4],96.5%
same,"viability, T/C",[5],93.3%
same,"viability, T/C",[6],73.9%
same,"viability, T/C",[7],91.8%
same,"viability, T/C",[8],96.8%
same,"viability, T/C",[9],98.6%
same,"viability, T/C",[10],99%
same,"viability, T/C",[11],97.4%
same,"viability, T/C",[12],61.7%
same,"viability, T/C",[13],96.6%
same,"viability, T/C",[14],96.7%
same,"viability, T/C",[15],99.5%
same,"viability, T/C",[16],85.2%
same,"viability, T/C",[17],96.3%
same,"viability, T/C",[18],73.5%
same,"viability, T/C",[19],90.2%
same,"viability, T/C",[20],83.4%
same,"viability, T/C",[21],80.5%
same,"viability, T/C",[22],73.6%
same,"viability, T/C",[23],80.8%
same,"viability, T/C",[24],63%
same,"viability, T/C","second compound 3.16 µM, first compound 0.0316 µM",74.9%
same,"viability, T/C","second compound 3.16 µM, first compound 0.1 µM",85.6%
same,"viability, T/C","second compound 3.16 µM, first compound 0.316 µM",67%
same,"viability, T/C","second compound 3.16 µM, first compound 1 µM",69.9%
same,"viability, T/C","second compound 3.16 µM, first compound 3.16 µM",72.8%
same,"viability, T/C","second compound 3.16 µM, first compound 10 µM",55.5%
same,"viability, T/C","second compound 10 µM, first compound 0.0316 µM",58.4%
same,"viability, T/C","second compound 10 µM, first compound 0.1 µM",61.2%
same,"viability, T/C","second compound 10 µM, first compound 0.316 µM",56.9%
same,"viability, T/C","second compound 10 µM, first compound 1 µM",68.3%
same,"viability, T/C","second compound 10 µM, first compound 3.16 µM",57.8%
same,"viability, T/C","second compound 10 µM, first compound 10 µM",40%
